Tested on: P. acnes
Experiment: Agar dilution method, growth of P. acnes and MIC, combinations with a fatty acid spike
Format: cell-based, Propionibacterium acnes
Design: key to Growth Index Plate 1 / Growth Index Plate 2 / Growth Index Plate 3 / Growth Index Avg: +++: confluent growth (comparable to control); ++: less confluent growth; +: marked reduction in growth to multiple tiny, single colonies; −: no growth present
[1] = compound at 1 mg/mL + 0.01 mg/mL 15-HETrE
[2] = compound at 1 mg/mL + 0.05 mg/mL 15-HETrE
[3] = compound at 1 mg/mL + 0.05 mg/mL 15-OHEPA
[4] = compound at 1 mg/mL + 0.1 mg/mL 15-OHEPA
[5] = compound at 1 mg/mL + 0.4 mg/mL dGLA
[6] = compound at 1 mg/mL + 1.0 mg/mL dGLA
[7] = compound at 5 mg/mL + 0.01 mg/mL 15-HETrE
[8] = compound at 5 mg/mL + 0.05 mg/mL 15-HETrE
[9] = compound at 5 mg/mL + 0.05 mg/mL 15-OHEPA
[10] = compound at 5 mg/mL + 0.1 mg/mL 15-OHEPA
[11] = compound at 5 mg/mL + 0.4 mg/mL dGLA
[12] = compound at 5 mg/mL + 1.0 mg/mL dGLA
[13] = compound at 10 mg/mL + 0.01 mg/mL 15-HETrE
[14] = compound at 10 mg/mL + 0.05 mg/mL 15-HETrE
[15] = compound at 10 mg/mL + 0.05 mg/mL 15-OHEPA
[16] = compound at 10 mg/mL + 0.1 mg/mL 15-OHEPA
[17] = compound at 10 mg/mL + 0.4 mg/mL dGLA
[18] = compound at 10 mg/mL + 1.0 mg/mL dGLA
[19] = compound at 15 mg/mL + 0.01 mg/mL 15-HETrE
[20] = compound at 15 mg/mL + 0.05 mg/mL 15-HETrE
[21] = compound at 15 mg/mL + 0.05 mg/mL 15-OHEPA
[22] = compound at 15 mg/mL + 0.1 mg/mL 15-OHEPA
[23] = compound at 15 mg/mL + 0.4 mg/mL dGLA
[24] = compound at 15 mg/mL + 1.0 mg/mL dGLA
[25] = compound at 25 mg/mL + 0.01 mg/mL 15-HETrE
[26] = compound at 25 mg/mL + 0.05 mg/mL 15-HETrE
[27] = compound at 25 mg/mL + 0.05 mg/mL 15-OHEPA
[28] = compound at 25 mg/mL + 0.1 mg/mL 15-OHEPA
[29] = compound at 25 mg/mL + 0.4 mg/mL dGLA
[30] = compound at 25 mg/mL + 1.0 mg/mL dGLA

Compound: NC(=O)c1cccnc1 [Nicotinamide]
- Growth Index Avg [1]: +++
- Growth Index Plate 1 [1]: +++
- Growth Index Plate 2 [1]: +++
- Growth Index Plate 3 [1]: +++
- Growth Index Avg [2]: −
- Growth Index Plate 1 [2]: −
- Growth Index Plate 2 [2]: −
- Growth Index Plate 3 [2]: −
- Growth Index Avg [3]: +++
- Growth Index Plate 1 [3]: +++
- Growth Index Plate 2 [3]: +++
- Growth Index Plate 3 [3]: +++
- Growth Index Avg [4]: −
- Growth Index Plate 1 [4]: −
- Growth Index Plate 2 [4]: −
- Growth Index Plate 3 [4]: −
- Growth Index Avg [5]: +++
- Growth Index Plate 1 [5]: +++
- Growth Index Plate 2 [5]: +++
- Growth Index Plate 3 [5]: +++
- Growth Index Avg [6]: +++
- Growth Index Plate 1 [6]: +++
- Growth Index Plate 2 [6]: +++
- Growth Index Plate 3 [6]: +++
- Growth Index Avg [7]: +++
- Growth Index Plate 1 [7]: +++
- Growth Index Plate 2 [7]: +++
- Growth Index Plate 3 [7]: +++
- Growth Index Avg [8]: −
- Growth Index Plate 1 [8]: −
- Growth Index Plate 2 [8]: −
- Growth Index Plate 3 [8]: −
- Growth Index Avg [9]: +++
- Growth Index Plate 1 [9]: +++
- Growth Index Plate 2 [9]: +++
- Growth Index Plate 3 [9]: +++
- Growth Index Avg [10]: −
- Growth Index Plate 1 [10]: −
- Growth Index Plate 2 [10]: −
- Growth Index Plate 3 [10]: −
- Growth Index Avg [11]: +++
- Growth Index Plate 1 [11]: +++
- Growth Index Plate 2 [11]: +++
- Growth Index Plate 3 [11]: +++
- Growth Index Avg [12]: +++
- Growth Index Plate 1 [12]: +++
- Growth Index Plate 2 [12]: +++
- Growth Index Plate 3 [12]: +++
- Growth Index Avg [13]: ++
- Growth Index Plate 1 [13]: ++
- Growth Index Plate 2 [13]: ++
- Growth Index Plate 3 [13]: ++
- Growth Index Avg [14]: −
- Growth Index Plate 1 [14]: −
- Growth Index Plate 2 [14]: −
- Growth Index Plate 3 [14]: −
- Growth Index Avg [15]: +++
- Growth Index Plate 1 [15]: +++
- Growth Index Plate 2 [15]: +++
- Growth Index Plate 3 [15]: +++
- Growth Index Avg [16]: −
- Growth Index Plate 1 [16]: −
- Growth Index Plate 2 [16]: −
- Growth Index Plate 3 [16]: −
- Growth Index Avg [17]: +++
- Growth Index Plate 1 [17]: +++
- Growth Index Plate 2 [17]: +++
- Growth Index Plate 3 [17]: +++
- Growth Index Avg [18]: ++
- Growth Index Plate 1 [18]: +
- Growth Index Plate 2 [18]: ++
- Growth Index Plate 3 [18]: ++
- Growth Index Avg [19]: −
- Growth Index Plate 1 [19]: −
- Growth Index Plate 2 [19]: −
- Growth Index Plate 3 [19]: −
- Growth Index Avg [20]: −
- Growth Index Plate 1 [20]: −
- Growth Index Plate 2 [20]: −
- Growth Index Plate 3 [20]: −
- Growth Index Avg [21]: −
- Growth Index Plate 1 [21]: −
- Growth Index Plate 2 [21]: −
- Growth Index Plate 3 [21]: −
- Growth Index Avg [22]: −
- Growth Index Plate 1 [22]: −
- Growth Index Plate 2 [22]: −
- Growth Index Plate 3 [22]: −
- Growth Index Avg [23]: +
- Growth Index Plate 1 [23]: +
- Growth Index Plate 2 [23]: +
- Growth Index Plate 3 [23]: +
- Growth Index Avg [24]: −
- Growth Index Plate 1 [24]: −
- Growth Index Plate 2 [24]: −
- Growth Index Plate 3 [24]: −
- Growth Index Avg [25]: −
- Growth Index Plate 1 [25]: −
- Growth Index Plate 2 [25]: −
- Growth Index Plate 3 [25]: −
- Growth Index Avg [26]: −
- Growth Index Plate 1 [26]: −
- Growth Index Plate 2 [26]: −
- Growth Index Plate 3 [26]: −
- Growth Index Avg [27]: −
- Growth Index Plate 1 [27]: −
- Growth Index Plate 2 [27]: −
- Growth Index Plate 3 [27]: −
- Growth Index Avg [28]: −
- Growth Index Plate 1 [28]: −
- Growth Index Plate 2 [28]: −
- Growth Index Plate 3 [28]: −
- Growth Index Avg [29]: −
- Growth Index Plate 1 [29]: −
- Growth Index Plate 2 [29]: −
- Growth Index Plate 3 [29]: −
- Growth Index Avg [30]: −
- Growth Index Plate 1 [30]: −
- Growth Index Plate 2 [30]: −
- Growth Index Plate 3 [30]: −
- growth of P. Acnes in combination with 15-HETrE, compared with 15-HETrE used alone (in combination with 15-HETrE): did not reduce the growth
- growth of P. Acnes in combination with 15-OHEPA, compared with 15 OHEPA used alone (in combination with 15-OHEPA): did not reduce the growth
- growth of P. Acnes in combination with DGLA, compared with DGLA used alone (in combination with DGLA): did not reduce the growth
